Where a name gives a salt, the structure may show the parent alone.
Experiments:
[1] = Acute toxicity, 7-day test, method of Litchfield and Wilcoxon; conditions: mouse, in vivo, mice
Description: The toxicity has been determined in a 7-day test with NMRI-mice having an average body weight of 18 to 26 g according to the method of Litchfield and Wilcoxon.

nictitating-membrane = test: Adrenaline stimulated nictitating-membrane of anesthetized cats (peripheral vasodilation); type: in vivo; conditions: for change in adrenaline-induced nictitating-membrane contraction: anesthetized cats, 0.01 mg Adrenaline i.v.; for effectiveness compared to Compound A (nictitating-membrane): in words, from Table II
Protocol: a. Adrenaline stimulated nictitating-membrane of anesthetized cats
This experiment is a classical model for the measurements of a peripheral vasodilation. Male and female cats have been anesthetized with pentobarbital. After tracheotomy the contraction of the nictitating-membrane was recorded by means of a strain-gauge. As stimulating agent 0.01 mg Adrenaline has been administered intravenously in intervals of 10 minutes.

isolated rabbit ears = test: Isolated rabbit ears, Pissensky's method (increased number of drops)
Protocol: b. Experiments on isolated rabbit ears
Male and female rabbits were killed 15 minutes after administration of heparine. Both ears were then cut off at the bases and examined according to Pissensky's method. The overflowing drops were measured by means of an electronic drop counter.

[2] = prior art, cited from earlier work

Row | SMILES | LD50 at 168 h ([1]; iv) [mg/kg] | LD50 at 168 h ([1]; po, i.g.) [mg/kg] | LD50 at 168 h ([1]; sc) [mg/kg] | change in adrenaline-induced nictitating-membrane contraction (nictitating-membrane; 0.025 mg/kg i.v.) | change in adrenaline-induced nictitating-membrane contraction (nictitating-membrane; 0.5 mg/kg i.v.) | change in adrenaline-induced nictitating-membrane contraction (nictitating-membrane; 2 mg/kg i.v.) | effectiveness compared to Compound A (nictitating-membrane) (nictitating-membrane) | Increased number of drops measured in the isolated rabbit ear (isolated rabbit ears; 0,5 mg) | Increased number of drops measured in the isolated rabbit ear (isolated rabbit ears; 1 mg) [%] | Increased number of drops measured in the isolated rabbit ear (isolated rabbit ears; 2 mg) [%] | Increased number of drops measured in the isolated rabbit ear (isolated rabbit ears; 4 mg) | Increased number of drops measured in the isolated rabbit ear (isolated rabbit ears; 0,025 mg) | action on the vessels of isolated rabbit ears (isolated rabbit ears; in words, from Table III) | duration of action [2] | absorbability ([2]; thymoxamine) | toxicity ([2]; thymoxamine)
1 | Cc1cc(OCCN(C)C)c(C(C)C)cc1OC(=O)OC(C)C [Compound 1, (4-Isopropoxycarboxy-thymyl)-(2'-dimethylaminoathyl)-ether.HCl] | 44 | 272 | 210 | ~ 60% | 100% | absolute in- | much more effective than Compound A | ~ 20% | 34 | 58 | 139% | ~ 10% | unexpected action on the vessels of isolated rabbit ears | – | – | –
2 | CC(=O)Oc1cc(C(C)C)c(OCCN(C)C)cc1C [Compound A, reference compound] | 48 | 193 | 156 | 0% | 0% | 50% | – | 15% | 15 | 16 | 16% | 14% | – | short duration of action | low absorbability | relative toxicity
3 | CCCCCCCC(=O)Oc1cc(C(C)C)c(OCCN(C)C)cc1C [Compound 3, (4-Capryloxy-thymyl)-(2'-dimethylaminoathyl)-ether.HCl] | 25 | 400 | – | ~ 30% | 80% | 100% | much more effective than Compound A | 80% | – | – | – | ~ 40% | – | – | – | –
4 | CCCCCCCCCC(=O)Oc1cc(C(C)C)c(OCCN(C)C)cc1C [Compound 2, (4-Caprinyloxy-thymyl)-(2'-dimethylaminoathyl)-ether.HCl] | 96 | 1020 | 1550 | ~ 10% | ~ 50% | 80% | much more effective than Compound A | 10% | 27 | 68 | ~ 80% | 15% | – | – | – | –

From patent US3966779A, “Thymol derivatives and a process for their preparation” (priority 1974, dated 1976)
